According to ChEMBL document CHEMBL5614424, “Natural Product-Inspired Discovery of Naphthoquinone-Furo-Piperidine Derivatives as Novel STAT3 Inhibitors for the Treatment of Triple-Negative Breast Cancer” (J Med Chem, 2024):
Calls of active or inactive are those of the source. No cut-off for these calls is given here. Peptide text beside a SMILES is read from it. * marks the point of attachment. Cbz = O=C(OCc1ccccc1)*; CH2F = FC*

Key:
[1] = tested on: MDA-MB-468; test: Induction of apoptosis in human MDA-MB-468 cells assessed as up-regulation of cleaved caspase 9 at 2.5 to 5 uM measured after 24 hrs by Western blotting analysis; format: functional, cell-based; settings: dose 2.5-5 µM
[2] = tested on: MDA-MB-231; test: Inhibition of colony formation in human MDA-MB-231 cells assessed as reduction in colony number and size at 1.25 to 5 uM by plate colony formation assay; format: functional, cell-based; settings: dose 1.25-5 µM
[3] = tested on: MDA-MB-231; test: Anti-invasion ability in human MDA-MB-231 cells assessed as reduction in cell invasion and migration ability rate incubated for 24 hrs by Boyden chamber transwell assay; format: functional, cell-based; settings: dose 1.25-5 µM
[4] = tested on: MDA-MB-231; test: Inhibition of cell migration in human MDA-MB-231 cells assessed as decrease in wound closure rate at 5 uM incubated for 6 to 24 hrs by wound healing assay; format: functional, cell-based; settings: time 6-24 hrs
[5] = tested on: MDA-MB-231; test: Induction of apoptosis in human MDA-MB-231 cells assessed as up-regulation of cleaved caspase 3 at 2.5 to 5 uM measured after 24 hrs by Western blotting analysis; format: functional, cell-based; settings: dose 2.5-5 µM
[6] = tested on: MDA-MB-231; test: Induction of apoptosis in human MDA-MB-231 cells assessed as down-regulation of cleaved […] at 2.5 to 5 uM measured after 24 hrs by Western blotting analysis; format: functional, cell-based; settings: dose 2.5-5 µM
[7] = tested on: MDA-MB-231; test: Decrease in STAT5 expression level in human MDA-MB-231 cell nucleus at 1.25 to 5 uM measured after 24 hrs by Western blot analysis; format: functional, cell-based; settings: dose 1.25-5 µM
[8] = tested on: MDA-MB-231; test: In vivo antitumor activity against human MDA-MB-231 cells xenografted in Female BALB/c-nude assessed as increase in TUNEL positive cells in tumor tissue at 15 to 30 mg/kg, ip once daily for 21 consecutive days by TUNEL cell apoptosis assay; format: functional, organism-based; settings: dose 15-30 mg/kg, time 21.0 day
[9] = tested on: MDA-MB-231; test: Induction of apoptosis in human MDA-MB-231 cells assessed as up-regulation of cleaved Bax at 2.5 to 5 uM measured after 24 hrs by Western blotting analysis; format: functional, cell-based; settings: dose 2.5-5 µM
[10] = tested on: MDA-MB-231; test: In vivo antitumor activity against human MDA-MB-231 cells xenografted in Female BALB/c-nude assessed as up-regulation of C-Caspase 3 expression in tumor tissue at 15 to 30 mg/kg, ip once daily for 21 consecutive days by […]; format: functional, organism-based; settings: dose 15-30 mg/kg, time 21.0 day
[11] = tested on: MDA-MB-468; test: Induction of apoptosis in human MDA-MB-468 cells assessed as down-regulation of cleaved Bcl-2 at 2.5 to 5 uM measured after 24 hrs by Western blotting analysis; format: functional, cell-based; settings: dose 2.5-5 µM
[12] = tested on: MDA-MB-231; test: In vivo antitumor activity against human MDA-MB-231 cells xenografted in Female BALB/c-nude assessed as down-regulation of p-STAT3 expression in tumor tissue at 15 to 30 mg/kg, ip once daily for 21 consecutive days by […]; format: functional, organism-based; settings: dose 15-30 mg/kg, time 21.0 day
[13] = molecular target: T1, Signal transducer and activator of transcription 1-alpha/beta (Homo sapiens) (UniProt P42224); test: Inhibition of STAT1 activation in human MDA-MB-231 cell assessed as decrease in phosphorylated STAT1 (Tyr701) level at 1.25 to 5 uM measured after 24 hrs by Western blot analysis; format: cell-based; settings: dose 1.25-5 µM
T1 sequence (whole entry): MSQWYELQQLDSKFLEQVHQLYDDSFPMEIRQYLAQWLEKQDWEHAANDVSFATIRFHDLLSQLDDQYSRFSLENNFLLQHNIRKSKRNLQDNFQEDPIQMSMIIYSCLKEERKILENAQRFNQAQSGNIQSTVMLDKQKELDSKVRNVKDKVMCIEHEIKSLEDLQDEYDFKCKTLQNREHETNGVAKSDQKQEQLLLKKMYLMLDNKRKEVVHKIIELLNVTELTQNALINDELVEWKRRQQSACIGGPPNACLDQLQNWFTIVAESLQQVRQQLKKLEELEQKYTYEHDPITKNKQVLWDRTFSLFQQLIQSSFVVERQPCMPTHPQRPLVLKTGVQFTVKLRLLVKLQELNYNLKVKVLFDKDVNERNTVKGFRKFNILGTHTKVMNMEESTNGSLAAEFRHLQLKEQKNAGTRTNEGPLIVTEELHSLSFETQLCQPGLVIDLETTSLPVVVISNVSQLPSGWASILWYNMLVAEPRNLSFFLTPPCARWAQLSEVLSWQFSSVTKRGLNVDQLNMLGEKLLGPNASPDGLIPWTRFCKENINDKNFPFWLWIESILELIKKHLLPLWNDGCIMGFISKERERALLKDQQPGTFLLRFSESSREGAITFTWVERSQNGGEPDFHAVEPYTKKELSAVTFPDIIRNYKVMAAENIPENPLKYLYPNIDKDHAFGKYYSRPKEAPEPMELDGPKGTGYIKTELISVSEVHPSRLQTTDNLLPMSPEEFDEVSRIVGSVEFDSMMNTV

[14] = tested on: MDA-MB-468; test: Decrease in STAT5 expression level in human MDA-MB-468 cell cytoplasm at 1.25 to 5 uM measured after 24 hrs by Western blot analysis; format: functional, cell-based; settings: dose 1.25-5 µM
[15] = tested on: MDA-MB-231; test: Induction of apoptosis in human MDA-MB-231 cells assessed as down-regulation of cleaved Bcl-2 at 2.5 to 5 uM measured after 24 hrs by Western blotting analysis; format: functional, cell-based; settings: dose 2.5-5 µM
[16] = tested on: MDA-MB-468; test: Induction of apoptosis in human MDA-MB-468 cells assessed as up-regulation of cleaved caspase 3 at 2.5 to 5 uM measured after 24 hrs by Western blotting analysis; format: functional, cell-based; settings: dose 2.5-5 µM
[17] = tested on: MDA-MB-468; test: Decrease in STAT5 expression level in human MDA-MB-468 cell nucleus at 1.25 to 5 uM measured after 24 hrs by Western blot analysis; format: functional, cell-based; settings: dose 1.25-5 µM
[18] = tested on: MDA-MB-468; test: Induction of apoptosis in human MDA-MB-468 cells assessed as […] at 2.5 to 5 uM measured after 24 hrs by Western blotting analysis; format: functional, cell-based; settings: dose 2.5-5 µM
[19] = tested on: MDA-MB-231; test: Induction of apoptosis in human MDA-MB-231 cells assessed as up-regulation of cleaved caspase 9 at 2.5 to 5 uM measured after 24 hrs by Western blotting analysis; format: functional, cell-based; settings: dose 2.5-5 µM
[20] = tested on: MDA-MB-231; test: Decrease in STAT5 expression level in human MDA-MB-231 cell cytoplasm at 1.25 to 5 uM measured after 24 hrs by Western blot analysis; format: functional, cell-based; settings: dose 1.25-5 µM
[21] = molecular target: T2, Signal transducer and activator of transcription 5A (Homo sapiens) (UniProt P42229); test: Inhibition of STAT5 activation in human MDA-MB-231 cell assessed as decrease in […] level at 1.25 to 5 uM measured after 24 hrs by Western blot analysis; format: cell-based; settings: dose 1.25-5 µM
T2 sequence (whole entry): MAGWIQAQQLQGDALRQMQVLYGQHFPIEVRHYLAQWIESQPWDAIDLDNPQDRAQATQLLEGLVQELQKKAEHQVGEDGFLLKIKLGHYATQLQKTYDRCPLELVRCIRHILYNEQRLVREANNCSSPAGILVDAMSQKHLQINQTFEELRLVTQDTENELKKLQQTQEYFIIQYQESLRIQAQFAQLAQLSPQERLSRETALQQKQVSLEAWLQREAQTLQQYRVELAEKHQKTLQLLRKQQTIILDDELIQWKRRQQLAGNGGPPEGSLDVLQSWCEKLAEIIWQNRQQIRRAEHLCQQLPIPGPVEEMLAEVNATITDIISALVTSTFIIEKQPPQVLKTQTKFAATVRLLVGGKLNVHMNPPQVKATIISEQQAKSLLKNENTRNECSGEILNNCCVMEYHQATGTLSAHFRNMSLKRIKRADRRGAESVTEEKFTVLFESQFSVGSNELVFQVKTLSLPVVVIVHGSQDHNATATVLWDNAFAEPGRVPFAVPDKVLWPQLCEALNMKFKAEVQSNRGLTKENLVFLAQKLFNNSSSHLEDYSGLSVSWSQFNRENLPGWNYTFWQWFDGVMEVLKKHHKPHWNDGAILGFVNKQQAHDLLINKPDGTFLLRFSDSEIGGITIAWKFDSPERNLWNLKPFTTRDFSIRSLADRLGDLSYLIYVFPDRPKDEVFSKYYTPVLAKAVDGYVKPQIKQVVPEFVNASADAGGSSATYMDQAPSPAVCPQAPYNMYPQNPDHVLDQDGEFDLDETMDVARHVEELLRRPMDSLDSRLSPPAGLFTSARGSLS

[22] = tested on: MDA-MB-468; test: Induction of apoptosis in human MDA-MB-468 cells assessed as up-regulation of cleaved Bax at 2.5 to 5 uM measured after 24 hrs by Western blotting analysis; format: functional, cell-based; settings: dose 2.5-5 µM
[23] = tested on: MDA-MB-468; test: Induction of apoptosis in human MDA-MB-468 cells assessed as late apoptotic cells at 10 uM measured after 24 hrs incubation by the annexin V/propidium iodide (PI) double staining assay (reference value: 4.33%); format: functional
[24] = tested on: MDA-MB-468; test: Induction of apoptosis in human MDA-MB-468 cells assessed as early apoptotic cells at 10 uM measured after 24 hrs incubation by the annexin V/propidium iodide (PI) double staining assay (reference value: 2.36%); format: functional
[25] = tested on: MDA-MB-231; test: Induction of apoptosis in human MDA-MB-231 cells assessed as early apoptotic cells at 10 uM measured after 24 hrs incubation by the annexin V/propidium iodide (PI) double staining assay (reference value: 2.37%); format: functional
[26] = tested on: MDA-MB-231; test: Induction of apoptosis in human MDA-MB-231 cells assessed as late apoptotic cells at 10 uM measured after 24 hrs incubation by the annexin V/propidium iodide (PI) double staining assay (reference value: 3.08%); format: functional
[27] = tested on: MDA-MB-468; test: Induction of apoptosis in human MDA-MB-468 cells assessed as early apoptotic cells at 5 uM measured after 24 hrs incubation by the annexin V/propidium iodide (PI) double staining assay (reference value: 3.98%); format: functional
[28] = tested on: MDA-MB-468; test: Induction of apoptosis in human MDA-MB-468 cells assessed as late apoptotic cells at 5 uM measured after 24 hrs incubation by the annexin V/propidium iodide (PI) double staining assay (reference value: 3.64%); format: functional
[29] = tested on: MDA-MB-231; test: Induction of apoptosis in human MDA-MB-231 cells assessed as early apoptotic cells at 5 uM measured after 24 hrs incubation by the annexin V/propidium iodide (PI) double staining assay (reference value: 2.46%); format: functional
[30] = tested on: MDA-MB-231; test: Antiproliferative activity against human MDA-MB-231 cells assessed as cell viability incubated for 48 hrs measured after additional incubation with MTT; format: functional, cell-based; settings: MDA-MB-231, 48 h
[31] = Antiproliferative activity against human MCF-10A cells assessed as cell viability incubated for 48 hrs measured after additional incubation with MTT; format: toxicity, cell-based
[32] = tested on: MDA-MB-231; test: Induction of apoptosis in human MDA-MB-231 cells assessed as late apoptotic cells at 5 uM measured after 24 hrs incubation by the annexin V/propidium iodide (PI) double staining assay (reference value: 2.69%); format: functional
[33] = tested on: MDA-MB-468; test: Antiproliferative activity against human MDA-MB-468 cells assessed as cell viability incubated for 48 hrs measured after additional incubation with MTT; format: functional, cell-based; settings: MDA-MB-468, 48 h

SMILES: CC(C)C[C@@H](CO)N1CCc2c(oc3c2C(=O)C(=O)c2ccccc2-3)C1
- Activity [1]: Active
- inhibition [2]: Active
- Activity [3]: Dose-Dependent Effect
- inhibition [4]: Active
- Activity [5]: Active
- Activity [6]: Active
- Activity [7]: Active
- Activity [8]: Active
- Activity [9]: Active
- Activity [10]: Active
- Activity [11]: Active
- Activity [12]: Active
- inhibition [13]: inactive
- Activity [14]: inactive
- Activity [15]: Active
- Activity [16]: Active
- Activity [17]: Active
- Activity [18]: Active
- Activity [19]: Active
- Activity [20]: inactive
- inhibition [21]: inactive
- Activity [22]: Active

SMILES: CC(C)[C@H](NC(=O)OCc1ccccc1)C(=O)N[C@@H](C)C(=O)N[C@@H](CC(=O)O)C(=O)CF (Cbz-Val-Ala-Asp-CH2F)
- Activity [23]: 2.19%
- Activity [24]: 5.02%
- Activity [25]: 2.76%
- Activity [26]: 2.63%

SMILES: CC(=O)c1cc2c(o1)C(=O)c1ccccc1C2=O [NAPABUCASIN]
- Activity [27]: 6.32%
- Activity [28]: 10%
- Activity [29]: 4.76%
- IC50 [30]: 2.94 µM
- IC50 at 48 h [31]: 7.94 µM
- Activity [32]: 12.07%
- IC50 [33]: 5.22 µM
